Results as given in patent publication US20240174596A1 (Northwestern University, priority 2021, published 2024).
Counter-ions that a name gives are not always drawn.

Legend:
hOAT = target: T1, hOAT (Homo sapiens, UniProt P04181); assay: Time-dependent inactivation of hOAT; format: biochemical
T1 construct: made in house; host or cells: E. coli BL21(DE3)
T1 sequence (P04181 26-439): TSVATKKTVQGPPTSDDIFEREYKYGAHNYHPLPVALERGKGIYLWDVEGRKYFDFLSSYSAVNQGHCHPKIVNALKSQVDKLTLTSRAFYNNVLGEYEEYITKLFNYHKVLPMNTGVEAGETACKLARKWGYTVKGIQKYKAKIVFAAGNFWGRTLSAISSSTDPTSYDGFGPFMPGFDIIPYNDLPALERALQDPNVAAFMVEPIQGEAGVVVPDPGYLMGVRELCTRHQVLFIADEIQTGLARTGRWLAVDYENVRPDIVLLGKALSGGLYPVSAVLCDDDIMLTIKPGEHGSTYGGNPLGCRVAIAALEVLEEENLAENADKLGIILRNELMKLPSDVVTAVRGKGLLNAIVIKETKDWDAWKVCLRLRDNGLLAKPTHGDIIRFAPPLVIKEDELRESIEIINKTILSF
Procedure: All reagents for enzyme purification and assays were purchased from Sigma-Aldrich (St. Louis, MO, USA). Human OAT (0.672 mg/mL) was purified from E. coli BL21 (DE3) cells following the procedure described above, and coenzyme human recombinant pyrroline 5-carboxylate reductase (PYCRI) were expressed, grown, and purified according to a literature procedure.^4 γ-Aminobutyric acid aminotransferase (GABA-AT, 0.4 mg/mL) was purified from pig brain following a procedure described previously^5, and coenzyme succinic semialdehyde dehydrogenase (SSDH) was purified from GABase (catalog No. G7509-25UN, Sigma-Aldrich), a commercially available mixture of SSDH and GABA-AT, using a known procedure.^6 Commercially available L-aspartate aminotransferase (Asp-AT) from the porcine heart (catalog No. G2751-2KU, Sigma-Aldrich) and the desired assay coenzyme malic dehydrogenase from porcine (catalog No. M2634-5KU, Sigma-Aldrich), and L-alanine aminotransferase (Ala-AT) from the porcine heart (catalog No. G8255-200UN, Sigma-Aldrich) and the desired assay coenzyme lactate dehydrogenase from porcine (catalog No. 427211-50KU, Sigma-Aldrich) were used directly without further purification. All the enzyme assays for the inactivation, partition ratio, and dialysis experiment were recorded on a Synergy H1 hybrid multimode microplate reader (Biotek, USA) with transparent 96-well plates.
Time-dependent inactivation against hOAT was performed using an optimized procedure published previously.^7 10 μL of hOAT (0.025 mg/mL) was preincubated with 10 μL of various concentrations of tested compounds in 100 mM potassium pyrophosphate buffer (pH 8.0, 5 mM α-ketoglutarate, and 5 mM β-mercaptoethanol) at 25° C. in a 96-well plate. At time intervals, 80 μL of assay solution containing PYCR^1 (0.5 μg), 1 mM NADH, and 25 mM L-ornithine in the abovementioned potassium pyrophosphate buffer were added to the incubation mixture and assayed for OAT activity at 37° C. for 30 min. The change in UV absorbance at 340 nm at 37° C. based on the conversion of NADH to NAD was monitored by a microplate reader. All assays were performed in duplicate, and the remaining OAT activity at each preincubation time at each inhibitor concentration was averaged. The natural logarithm of the percentage of the remaining OAT activity was plotted against the preincubation time at each inhibitor concentration to obtain the kobs (slope) value for each concentration. The kobs value is the rate constant describing the inactivation at each inhibitor concentration. kobs is replotted against the inhibitor concentration using nonlinear regression analysis using GraphPad Prism 8.0. K1 and kinact values were estimated from equation (1)
where kinact is the maximal rate of inactivation, K1 is the inhibitor concentration required for half-maximal inactivation, and [I] is the preincubation concentration of the tested compound.

[1] = Liver microsomal stability, mouse; format: in vitro ADME
Plasma PK profiles = format: in vivo

SMILES: N[C@H]1C=C(C(=O)O)CC1(F)F [SS-1-148, (S)-3-Amino-4,4-difluorocyclopent-1-enecarboxylic acid hydrochloric acid salt]
- improvement of inactivation efficiency (kinact/K1) relative to parent compound 4 (hOAT): 444 fold
- type of inhibition on hOAT (hOAT): irreversible inhibitor
- kinact/KI (hOAT; inactivation efficiency): 22.2 M⁻¹ s⁻¹
- kinact (hOAT; mean and standard error): 0.00133 s⁻¹
- Liver microsomal stability (t1/2) Mouse [1]: N/C
- AUC(0-inf) (Plasma PK profiles; IV (5 mg/kg)): 1160 ng·h/mL
- AUC(0-t) (Plasma PK profiles; IV (5 mg/kg)): 1150 ng·h/mL
- Cmax (Plasma PK profiles; IV (5 mg/kg)): 4680 ng/mL
- T1/2 (Plasma PK profiles; IV (5 mg/kg)): 0.43 H
- clearance (Plasma PK profiles; IV (5 mg/kg)): 72 mL/min/kg
- Vd (Plasma PK profiles; IV (5 mg/kg), read-out: Vss): 1.01 L/kg
- AUC(0-inf) (Plasma PK profiles; PO (30 mg/kg)): 8530 ng·h/mL
- AUC(0-t) (Plasma PK profiles; PO (30 mg/kg)): 8440 ng·h/mL
- Cmax (Plasma PK profiles; PO (30 mg/kg)): 8080 ng/mL
- Tmax (Plasma PK profiles; PO (30 mg/kg)): 15 min
- bioavailability (Plasma PK profiles; PO (30 mg/kg)): ~100%
